pIC50: −log10 of the molar value.
Tests used:
BT-474 cells = test: BT-474 Cell Growth Inhibition Test (SRB Assay); format: cell-based, human; conditions: 70 h incubation
Procedure, shortened: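 Human breast tumour BT-474 cells (1×10^5/ml seeding, overnight) exposed to compound 70 h at 37 °C, 5% CO2; TCA-fixed, SRB-stained, dye dissolved in 10 mM Tris and OD read at 570 nm. Inhibition ratio = (PC−n)/(PC−NC)×100%; IC50 is the concentration giving 50% inhibition, from fitted curves.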

LoVo cells = test: LoVo Cell Growth Inhibition Test (MTT Assay); format: cell-based; conditions: Homo sapiens, 72 h incubation
Procedure, shortened: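 Human LoVo intestinal cancer cells, 3000-4000 per well, were treated with compound for 72 h at 37° C, 5% CO2. Growth was measured by MTT (0.5 mg/ml, 4 h), DMSO-solubilised, OD 490 nm; IC50 is the concentration giving 50% inhibition.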

NCI-H460 cells = test: NCI-H460 Cell Growth Inhibition Test (MTT Assay); format: cell-based; conditions: Homo sapiens, 72 h incubation
Procedure, shortened: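 Cells seeded at 2500 per well, left overnight, then exposed to compound for 72 h at 37 °C, 5% CO2. Viability by MTT (0.5 mg/ml, 3 h), DMSO-dissolved, OD 490 nm; inhibition ratio = (PC−n)/(PC−NC)×100%, IC50 from curve fit.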

Sk-Br-3 cells = test: Sk-Br-3 Cell Growth Inhibition Test (SRB Assay); format: cell-based; conditions: Homo sapiens, 91 h incubation
Procedure, shortened: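 Sk-Br-3 cells seeded at 10000/well in DMEM with 10% FBS were incubated overnight, then exposed to compound for 91 h at 37° C, 5% CO2. TCA-fixed cells were SRB-stained and OD read at 570 nm. GI50, TGI and LC50 were derived from growth relative to time-zero, untreated and blank wells.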

SMILES	pIC50 (BT-474 cells; Homo sapiens)	inhibition at 1 µM (BT-474 cells; Homo sapiens, BT-474, 70 h, compound 1 μM, read-out: Growth Inhibition Ratio (%)) [%]	pIC50 (LoVo cells)	pIC50 (NCI-H460 cells)	GI50 (Sk-Br-3 cells) [nM]	Growth Inhibition Ratio (%) (BT-474 cells; compound 1 μM)
C#Cc1cccc(Nc2c(C#N)cnc3cc(O[C@@H]4CCOC4)c(NC(=O)/C=C/CN(C)C)cc23)c1 [Example 141, (R,E)-N-(3-CYANO-4-(3-ETHYNYLPHENYLAMINO)-7-(TETRAHYDROFURAN-3-YL-OXY)QUINOLIN-6-YL)-4-(DIMETHYLAMINO)-BUT-2-ENAMIDE]	7.02	89	5.12	5.54	39	–
CN(C)C/C=C/C(=O)Nc1cc2c(Nc3ccc(F)c(Cl)c3)c(C#N)cnc2cc1OC1CCOC1 (stereo not drawn) [Example 4, (E)-N-(4-(3-CHLORO-4-FLUOROPHENYLAMINO)-3-CYANO-7-(TETRAHYDROFURAN-3-YL-OXY)QUINOLIN-6-YL)-4-(DIMETHYLAMINO)-BUT-2-ENAMIDE]	6.85	–	5.10	5.80	148	79
Cc1ccc(COc2ccc(Nc3c(C#N)cnc4cc(OC5CCOC5)c(NC(=O)/C=C/CN(C)C)cc34)cc2Cl)cc1 (stereo not drawn) [Example 19, (E)-N-(4-(4-(4-METHYLBENZYLOXY)-3-CHLOROPHENYLAMINO)-3-CYANO-7-(TETRAHYDROFURAN-3-YL-OXY)QUINOLIN-6-YL)-4-(DIMETHYLAMINO)-BUT-2-ENAMIDE]	7.49	–	5.70	5.96	63	–
CN(C)C/C=C/C(=O)Nc1cc2c(Nc3ccc(OCc4ccccn4)c(Cl)c3)c(C#N)cnc2cc1OC1CCOC1 (stereo not drawn) [Example 21, (E)-N-(4-(3-CHLORO-4-(PYRIDIN-2-YL-METHOXY)PHENYLAMINO)-3-CYANO-7-(TETRAHYDROFURAN-3-YL-OXY)QUINOLIN-6-YL)-4-(DIMETHYLAMINO)-BUT-2-ENAMIDE]	8.44	–	5.70	5.57	4.1	–
